According to patent US11926628B2 (Gilead Sciences, Inc., priority 2021, dated 2024):

Columns and labels:
human DGKα = human DGKα (Homo sapiens (Human), UniProt P23743); assay: DGKα Biochemical Activity Assay (ADP-Glo); settings: recombinant DGKα 1 nM, 100 μM ATP, 18:1 DAG/POPS/octylglucoside micelles, 1 hour at 25° C.; geometric mean; read-out: HTBS DGKa 1X ATP KM IC50
Method in brief: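 Recombinant DGKα (1 nM final) was preincubated with compound for 15 min, then reacted for 1 h at 25 °C with 100 μM ATP and octylglucoside micelles of 0.85 mM 18:1 DAG and 6.75 mM POPS in pH 7.2 MOPS with 5 mM MgCl2. ADP formed was read by ADP-Glo luminescence. IC50 came from four-parameter fits normalized to DMSO and 50 μM CU3, and values were geometric means.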

[1] = tested on: Jurkat NFκB-luciferase cells; assay: Jurkat NFκB-Luciferase Assay; type: cell-based; settings: Homo sapiens; Jurkat NFκB-luciferase cells activated with anti-CD3 antibody (OKT3), 2.5 hrs at 37° C.; geometric mean; read-out: DGK NFKb Luciferase EC50
Method in brief: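 Jurkat NFκB-luciferase reporter cells stimulated on plate-bound anti-CD3 (5 ug/ml coating) with compound, 2.5 hrs at 37° C then 30 min at 25° C; luminescence read with One-Glo Ex. Normalized to DMSO (basal) and 1 micromolar compound (maximum) controls; EC50 from four-parameter fit, geometric mean across experiments.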

human DGKα, sequence (P23743 whole entry): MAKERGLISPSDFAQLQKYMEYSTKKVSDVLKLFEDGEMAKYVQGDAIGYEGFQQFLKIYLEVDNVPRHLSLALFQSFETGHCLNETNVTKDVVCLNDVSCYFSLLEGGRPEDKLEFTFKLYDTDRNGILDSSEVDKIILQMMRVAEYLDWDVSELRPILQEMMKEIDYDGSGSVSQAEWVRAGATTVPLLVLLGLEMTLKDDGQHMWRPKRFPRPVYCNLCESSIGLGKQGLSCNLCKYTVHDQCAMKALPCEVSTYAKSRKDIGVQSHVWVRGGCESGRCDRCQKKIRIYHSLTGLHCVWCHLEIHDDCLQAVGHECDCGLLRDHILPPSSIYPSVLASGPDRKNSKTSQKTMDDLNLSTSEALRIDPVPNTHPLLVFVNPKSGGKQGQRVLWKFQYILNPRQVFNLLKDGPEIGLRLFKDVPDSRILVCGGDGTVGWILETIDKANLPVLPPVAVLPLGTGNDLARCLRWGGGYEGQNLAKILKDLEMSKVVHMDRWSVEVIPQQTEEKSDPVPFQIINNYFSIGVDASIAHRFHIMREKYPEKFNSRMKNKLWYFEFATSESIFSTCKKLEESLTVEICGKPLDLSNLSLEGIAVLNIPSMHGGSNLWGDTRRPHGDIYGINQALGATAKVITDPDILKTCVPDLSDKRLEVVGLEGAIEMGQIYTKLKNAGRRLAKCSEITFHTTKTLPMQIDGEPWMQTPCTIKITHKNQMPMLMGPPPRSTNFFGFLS

IC50 (human DGKα) [nM] | EC50 [1] [nM] | SMILES
439 | 5.67 | CNc1ccc2c(N(C)c3cccc(-c4ccc(S(F)(F)(F)(F)F)cc4)c3)nc3nncn3c2n1 [Example 116, N2,N5-dimethyl-N5-(4′-(pentafluoro-16-sulfaneyl)-[1,1′-biphenyl]-3-yl)pyrido[3,2-e][1,2,4]triazolo[4,3-a]pyrimidine-2,5-diamine]
30.4 | 4.88 | CN(c1cccc(-c2ccc(S(F)(F)(F)(F)F)cc2)c1)c1nc2nncn2c2nc(N)ccc12 [Example 117, N5-methyl-N5-(4′-(pentafluoro-16-sulfaneyl)-[1,1′-biphenyl]-3-yl)pyrido[3,2-e][1,2,4]triazolo[4,3-a]pyrimidine-2,5-diamine]
105 | 5.79 | CNc1ccc2c(N(C)c3cccc(C#CC(C)(C)C)c3)nc3nncn3c2n1 [Example 118, N5-(3-(3,3-dimethylbut-1-yn-1-yl)phenyl)-N2,N5-dimethylpyrido[3,2-e][1,2,4]triazolo[4,3-a]pyrimidine-2,5-diamine]
392 | 52.2 | CNc1ccc2c(N(C)c3cccc(-c4ccc(OC)nc4)c3)nc3nncn3c2n1 [Example 119, N5-(3-(6-methoxypyridin-3-yl)phenyl)-N2,N5-dimethylpyrido[3,2-e][1,2,4]triazolo[4,3-a]pyrimidine-2,5-diamine]
19.3 | 0.664 | CNc1ccc2c(N(C)c3cccc(-c4ccc(C5CC5)cc4)c3)nc3nncn3c2n1 [Example 120, N5-(4′-cyclopropyl-[1,1′-biphenyl]-3-yl)-N2,N5-dimethylpyrido[3,2-e][1,2,4]triazolo[4,3-a]pyrimidine-2,5-diamine]
12.7 | 2.05 | Cc1ccc2c(N(C)c3cccc(-c4ccc(C5CC5)cc4)c3)nc3nncn3c2n1 [Example 123, N-(4′-cyclopropyl-[1,1′-biphenyl]-3-yl)-N,2-dimethylpyrido[3,2-e][1,2,4]triazolo[4,3-a]pyrimidin-5-amine]
12.3 | 7.45 | Cc1ccc2c(N(C)c3cccc(-c4ccc(C(F)F)cc4)c3)nc3nncn3c2n1 [Example 124, N-(4′-(difluoromethyl)-[1,1′-biphenyl]-3-yl)-N,2-dimethylpyrido[3,2-e][1,2,4]triazolo[4,3-a]pyrimidin-5-amine]
734 | 169 | Cc1ccc2c(N(C)c3cccc(Cl)c3)nc3nncn3c2n1 [Example 125, N-(3-chlorophenyl)-N,2-dimethylpyrido[3,2-e][1,2,4]triazolo[4,3-a]pyrimidin-5-amine]
7.25 | 1.43 | CN(c1cccc(-c2ccc(C3CC3)cc2)c1)c1nc2nncn2c2nc(N)ccc12 [Example 127, N5-(4′-cyclopropyl-[1,1′-biphenyl]-3-yl)-N5-methylpyrido[3,2-e][1,2,4]triazolo[4,3-a]pyrimidine-2,5-diamine]
28.9 | 0.754 | COc1ccc2c(N(C)c3cccc(-c4ccc(C5CC5)cc4)c3)nc3nncn3c2n1 [Example 129, N-(4′-cyclopropyl-[1,1′-biphenyl]-3-yl)-2-methoxy-N-methylpyrido[3,2-e][1,2,4]triazolo[4,3-a]pyrimidin-5-amine]
55 | 2.52 | COc1ccc2c(N(C)c3cccc(-c4ccc(C(F)F)cc4)c3)nc3nncn3c2n1 [Example 130, N-(4′-(difluoromethyl)-[1,1′-biphenyl]-3-yl)-2-methoxy-N-methylpyrido[3,2-e][1,2,4]triazolo[4,3-a]pyrimidin-5-amine]
11.5 | 7.69 | CN(c1cccc(-c2ccc(C(F)F)cc2)c1)c1nc2nncn2c2nc(N)ccc12 [Example 131, N5-(4′-(difluoromethyl)-[1,1′-biphenyl]-3-yl)-N5-methylpyrido[3,2-e][1,2,4]triazolo[4,3-a]pyrimidine-2,5-diamine]

Continued, compound first:

SMILES | IC50 (human DGKα) [nM] | EC50 [1] [nM]
CN(c1cccc(C#CC2(C(F)(F)F)CC2)c1)c1nc2nncn2c2nc(N)ccc12 [Example 121, N5-methyl-N5-(3-((1-(trifluoromethyl)cyclopropyl)ethynyl)phenyl)pyrido[3,2-e][1,2,4]triazolo[4,3-a]pyrimidine-2,5-diamine] | 46.2 | 6.93
Cc1ccc2c(N(C)c3cccc(C#CC(C)(C)C)c3)nc3nncn3c2n1 [Example 122, N-(3-(3,3-dimethylbut-1-yn-1-yl)phenyl)-N,2-dimethylpyrido[3,2-e][1,2,4]triazolo[4,3-a]pyrimidin-5-amine] | 42.7 | 4.15
CN(c1cccc(C#CC(C)(C)C)c1)c1nc2nncn2c2nc(N)ccc12 [Example 126, N5-(3-(3,3-dimethylbut-1-yn-1-yl)phenyl)-N5-methylpyrido[3,2-e][1,2,4]triazolo[4,3-a]pyrimidine-2,5-diamine] | 21.4 | 3.15
COc1ccc2c(N(C)c3cccc(C#CC(C)(C)C)c3)nc3nncn3c2n1 [Example 128, N-(3-(3,3-dimethylbut-1-yn-1-yl)phenyl)-2-methoxy-N-methylpyrido[3,2-e][1,2,4]triazolo[4,3-a]pyrimidin-5-amine] | 102 | 3.46
CN(c1cccc(Cl)c1)c1nc2nncn2c2nc(N)ccc12 [Example 132, N5-(3-chlorophenyl)-N5-methylpyrido[3,2-e][1,2,4]triazolo[4,3-a]pyrimidine-2,5-diamine] | 388 | 91.4
COc1ccc2c(N(C)c3cccc(-c4ccc(C(F)F)cc4)c3)nc3nnc(C)n3c2n1 [Example 133, N-(4′-(difluoromethyl)-[1,1′-biphenyl]-3-yl)-2-methoxy-N,9-dimethylpyrido[3,2-e][1,2,4]triazolo[4,3-a]pyrimidin-5-amine] | 52.8 | 1.98
Cc1nnc2nc(N(C)c3cccc(-c4ccc(C(F)F)cc4)c3)c3ccc(N)nc3n12 [Example 134, N5-(4′-(difluoromethyl)-[1,1′-biphenyl]-3-yl)-N5,9-dimethylpyrido[3,2-e][1,2,4]triazolo[4,3-a]pyrimidine-2,5-diamine] | 12.3 | 8.3
Cc1nnc2nc(N3CCCc4c(C#Cc5cnn(C)c5)cccc43)c3cc(F)cnc3n12 [Example 135] | 4.03 | 3.1
Cc1nnc2nc(N3CCOCc4c(C#CC(C)(C)C#N)cccc43)c3cc(F)cnc3n12 [Example 136] | 3.35 | 10.4
Cc1nnc2nc(N3CCOCc4c(C#Cc5cnn(C)c5)cccc43)c3ccc(C(F)(F)F)nc3n12 [Example 137, 6-((1-methyl-1H-pyrazol-4-yl)ethynyl)-1-(9-methyl-2-(trifluoromethyl)pyrido[3,2-e][1,2,4]triazolo[4,3-a]pyrimidin-5-yl)-1,2,3,5-tetrahydrobenzo[e][1,4]oxazepane] | 8.38 | 5.67
Cc1nnc2nc(N3CCOCc4c(C#CC(C)(C)C#N)cccc43)c3ccc(C(F)(F)F)nc3n12 [Example 138, 2,2-dimethyl-4-(1-(9-methyl-2 (trifluoromethyl)pyrido[3,2-e][1,2,4]triazolo[4,3-a]pyrimidin-5-yl)-1,2,3,5-tetrahydrobenzo[e][1,4]oxazepin-6-yl)but-3-ynenitrile] | 6.56 | 4.35
Cc1nnc2nc(N3CCCc4c(C#Cc5cnn(C)c5)cccc43)c3ccc(C(F)(F)F)nc3n12 [Example 139, 9-methyl-5-(5-((1-methyl-1H-pyrazol-4-yl)ethynyl)-3,4-dihydroquinolin-1(2H)-yl)-2-(trifluoromethyl)pyrido[3,2-e][1,2,4]triazolo[4,3-a]pyrimidine] | 47.8 | 6.04
Cc1nnc2nc(N3CCOCc4c(C#CC5(C)CC5)cccc43)c3ccc(C(F)(F)F)nc3n12 [Example 140, 1-(9-methyl-2-(trifluoromethyl)pyrido[3,2-e][1,2,4]triazolo[4,3-a]pyrimidin-5-yl)-6-((1-methylcyclopropyl)ethynyl)-1,2,3,5-tetrahydrobenzo[e][1,4]oxazepine] | 11.5 | 2.37
Cc1nnc2nc(N3CCOCc4c(C#CC(C)(C)O)cccc43)c3ccc(C(F)(F)F)nc3n12 [Example 141, 2-methyl-4-[1-[3-methyl-12-(trifluoromethyl)-2,4,5,7,13-pentazatricyclo[7.4.0.02,6]trideca-1(13),3,5,7,9,11-hexaen-8-yl]-3,5-dihydro-2H-4,1-benzoxazepin-6-yl]but-3-yn-2-ol] | 20.1 | 55.8
Cc1nnc2nc(N3CCCc4c(C#CC5(C(F)(F)F)CC5)cccc43)c3ccc(C(F)(F)F)nc3n12 [Example 142, 9-methyl-2-(trifluoromethyl)-5-(5-((1-(trifluoromethyl)cyclopropyl)ethynyl)-3,4-dihydroquinolin-1(2H)-yl)pyrido[3,2-e][1,2,4]triazolo[4,3-a]pyrimidine] | 712 | 0.464
Cc1nnc2nc(N3CCCc4c(C#CC5(C)CC5)cccc43)c3ccc(C(F)(F)F)nc3n12 [Example 143, 9-methyl-5-(5-((1-methylcyclopropyl)ethynyl)-3,4-dihydroquinolin-1(2H)-yl)-2-(trifluoromethyl)pyrido[3,2-e][1,2,4]triazolo[4,3-a]pyrimidine] | 1.38 | 0.051
Cc1nnc2nc(N3CCCc4c(C#CC(C)(C)C#N)cccc43)c3cc(F)cnc3n12 [Example 144, 4-(1-(3-fluoro-9-methylpyrido[3,2-e][1,2,4]triazolo[4,3-a]pyrimidin-5-yl)-1,2,3,4-tetrahydroquinolin-5-yl)-2,2-dimethylbut-3-ynenitrile] | 5.08 | 4.67
